Series [1] in a line: Solubility of (Z)-endoxifen at pH 6.8 with and without Polysorbate 80. The format is physicochemical. On the procedure: This example describes development of a dissolution assay to measure dissolution of endoxifen formulations. Since solubility of endoxifen decreases as pH becomes less acidic, as shown in EXAMPLE 1, additional experiments were performed to improve solubility of endoxifen in the pH 6.8 buffer solution. Polysorbate 80 (PS80), a nonionic surfactant, was added in varying concentrations to improve solubility and mimic an intestinal environment. Surfactants, such as polysorbate 80, create micelles in the medium that mimic the bile acid aggregates in the small intestine. These micelles facilitate the diffusion and transport of product into the medium.

Series [2] can be described thus: pH-dependent solubility of (Z)-endoxifen. The format is physicochemical. The note with it: for solubility: read-out: Solubility Z-form. Here is the method:
This example describes pH-dependent solubility of (Z)-endoxifen. (Z)-endoxifen was dissolved in solution under different pH conditions, and the solubility was measured. Since (Z)-endoxifen converts to the E-form under acidic conditions, the solubility of (Z)-endoxifen and (E)-endoxifen were measured independently, and a ratio of Z-form to E-form was determined.

Converted amounts (≈) assume the structure as drawn.

Regarding `CC/C(=C(\c1ccc(O)cc1)c1ccc(OCCNC)cc1)c1ccccc1` [(Z)-endoxifen], the solubility in series [1] (aqueous buffer, pH 6.8 Buffer (Control), no Polysorbate 80) was 8.14 µg/mL (≈ 21.8 µM); in series [1] (pH 6.8 buffer with 0.5% Polysorbate 80, pH 6.8, aqueous with cosolvent or surfactant or cyclodextrin) it was 58.3 µg/mL (≈ 156 µM); in series [1] (pH 6.8 buffer with 1.0% Polysorbate 80, pH 6.8, aqueous with cosolvent or surfactant or cyclodextrin) it was 62.1 µg/mL (≈ 166 µM); in series [2] (solution at pH 1.2, pH 1.2, simulated gastric fluid), 1050 µg/mL (≈ 2800 µM); in series [2] (solution at pH 4.5, pH 4.5, aqueous buffer), 250 µg/mL (≈ 668 µM); in series [2] (solution at pH 5.0, pH 5, aqueous buffer), 203 µg/mL (≈ 543 µM). Besides, the solubility in series [2] (solution at pH 5.5, pH 5.5, aqueous buffer) came to 43.5 µg/mL (≈ 116 µM); in series [2] (solution at pH 6.0, pH 6, aqueous buffer) it was 27.8 µg/mL (≈ 74.4 µM); in series [2] (solution at pH 6.8, pH 6.8, aqueous buffer), 4.26 µg/mL (≈ 11.4 µM); in series [2] (water), 0.78 µg/mL (≈ 2.09 µM). Further, the “Z-form to E-form equilibration” value in series [2] (pH 6.8) was “below the limit of detection”.

By solubility is commonly meant how much of the substance goes into solution per volume.

(Values after patent publication US20250281414A1, “HIGH DOSE ENDOXIFEN FORMULATIONS AND METHODS OF USE” (Atossa Therapeutics, Inc., priority 2022, published 2025).)
